Results: patent US20210003580A1, “METHODS OF DETECTION AND TREATMENT OF HYPER TRANSCRIPTION DISEASES” (BOARD OF REGENTS OF THE UNIVERSITY OF TEXAS SYSTEM, priority 2018, published 2021)

Experiments:
EwS cell lines = assay: Cell viability (Celltiter-Glo) after drug exposure, EwS cell lines vs controls; format: cell-based, human; settings: cell viability measured after 72 hours exposure, compared to controls IMR90 / U2OS
Description: Cell culture and transfections. Ewing sarcoma cell lines (TC32, CHLA10 and CHLA258) were obtained from Children's Oncology Group and EWS502 was obtained from Dr. Lessnick. Of note, TC32 is highly chemosensitive and CHLA10 was derived from a post-treatment recurrent chemoresistant tumor (Table 1). As controls, IMR90 (primary human neonatal fibroblast) and U2OS (pediatric Osteosarcoma) cell lines were obtained from ATCC. IMR90 and U2OS were cultured in DMEM (Corning), TC32, EWS502, RDES in […] (Corning), SKES1 in McCoys (Corning) and CHLA10, CHLA258 in IMDM (HyClone); all cultured media were supplemented with 10% FBS (Atlanta Biologicals) and 1% antibiotic/antimycotic solution (Corning). Cells were maintained at 37° C. in a humidified atmosphere with 5% CO2 and tested for mycoplasma contamination.
(§1) Cell viability. Cells were seeded at 30% confluence in 96 or 384 well plates with or without reverse transfection with siRNA. For plasmid expression, cells were transfected in 60 mm dishes first and then split into 96 or 384 well plates. The following day, the cells were treated to different drugs/inhibitors and cell viability was evaluated after 48 to 72 hours using Celltiter-Glo (Promega). Each condition was tested in triplicate. […] Drug screening data from an independently published study was obtained from http://www.cancerrxgene.org/.

[1] = tested on: U2OS cells transfected with EWS-FLI1; assay: Cell viability, U2OS cells transfected with EWS-FLI1 vs empty vector; format: cell-based, human; settings: compared to empty vector (EV) transfected cells
Description: All transfections were carried out using Lipofectamine RNAiMax, Lipofectamine 3000 (Invitrogen) following manufacturer's instructions. For RNASEH1 transfections, 3×10^6 TC32 cells were transfected with 13 μg of plasmid DNA using Amaxa nucleofection (program X-001). Gene knockdowns were performed by reverse transfection whereas plasmid transfections were performed 24 hours after seeding. The siRNAs used in this study include: BRCA1 and EWSR1 (Life Technologies), EWSR1, BRCA1, FLI1, FUS, TAF15, 53BP1, FANCA, FANCD2 and FANCI (Santa Cruz). For some experiments, lentiviral transduction of TC32 with shCtrl (clone RHZ4743, Life Technologies) or shFLI1 (clone V2THS227524 or V3THS414176, Life Technologies) was performed. EWS-FLI1, EWS-FLI1 R2L2, EWS-ERG, EWSR1 (full length) and shEWSR1 in pMSCV vector were obtained from Dr. Stephen Lessnick. EWSR1 N terminal domain in pLX304 vector was purchased from DNASU. GFP-RNASEH1 and FLAG-RNASEH1 plasmids were a kind gift from Dr. Robert Crouch (Eunice Kennedy Shriver National Institute of Child Health and Human Development). HA-BRCA1 was obtained from Dr. Yuzuru Shiio (UTH-SA). […]
Cell viability. […] The following day, the cells were treated to different drugs/inhibitors and cell viability was evaluated after 48 to 72 hours using Celltiter-Glo (Promega). […]

[2] = tested on: U2OS cells with EWSR1 knockdown; assay: Cell viability, EWSR1-depleted U2OS cells; format: cell-based, human; settings: U2OS siEWSR1 relative to U2OS siCtrl; 72 hours
Description: All transfections were carried out using Lipofectamine RNAiMax, Lipofectamine 3000 (Invitrogen) following manufacturer's instructions. For RNASEH1 transfections, 3×10^6 TC32 cells were transfected with 13 μg of plasmid DNA using Amaxa nucleofection (program X-001). Gene knockdowns were performed by reverse transfection whereas plasmid transfections were performed 24 hours after seeding. The siRNAs used in this study include: BRCA1 and EWSR1 (Life Technologies), EWSR1, BRCA1, FLI1, FUS, TAF15, 53BP1, FANCA, FANCD2 and FANCI (Santa Cruz). For some experiments, lentiviral transduction of TC32 with shCtrl (clone RHZ4743, Life Technologies) or shFLI1 (clone V2THS227524 or V3THS414176, Life Technologies) was performed. EWS-FLI1, EWS-FLI1 R2L2, EWS-ERG, EWSR1 (full length) and shEWSR1 in pMSCV vector were obtained from Dr. Stephen Lessnick. EWSR1 N terminal domain in pLX304 vector was purchased from DNASU. GFP-RNASEH1 and FLAG-RNASEH1 plasmids were a kind gift from Dr. Robert Crouch (Eunice Kennedy Shriver National Institute of Child Health and Human Development). HA-BRCA1 was obtained from Dr. Yuzuru Shiio (UTH-SA). ISceI in pCAGGS vector was a kind gift from Dr. Maria Jasin (Memorial Sloan Kettering Cancer Center) and Dr. Jeremy Stark (City of Hope Cancer Center). All siRNA and plasmid transfections were accompanied with control siRNA or empty vector respectively.
as §1

TC32 cells = assay: Transcription recovery assay (EU incorporation), TC32; format: cell-based, human; settings: exposed for 2 or 16 hours, 30 min EU labeling
Description: (§2) Transcription Recovery Assay. […] Post-incubation, cells were fixed, permeabilized and subjected to Click-iT RNA reaction (Click-iT RNA Alexa Flour […] Imaging kit, ThermoFisher Scientific) according to manufacturer's instructions. Washed coverslips were mounted onto glass slides using ProLong Antifade Mounting Solution with DAPI (ThermoFisher Scientific) and imaged using a Zeiss microscope at 63×. A minimum of 100 cells were analyzed for each condition. Image analysis was performed using ImageJ.

IMR90 cells = assay: Transcription recovery assay (EU incorporation), IMR90; format: cell-based, human; settings: exposed for 2 or 16 hours, 30 min EU labeling
Description: as §2

CDK9/cyclin T1 = biological target: T1, CDK9/cyclin T1 (Homo sapiens, UniProt P50750); assay: In vitro RNAPII phosphorylation assay (Adapta kinase assay), CDK9; format: biochemical; settings: 1 μM recombinant protein; substrates CDKtide or RNAPII CTD fragment; relative to vehicle
T1 construct: purchased ThermoFisher Scientific PV4131
Description: In vitro RNAPII phosphorylation assay. The following purified recombinant proteins were purchased: RNAPII CTD fragment (POLR2A-1149H, Creative BioMart), EWSR1 (TP303709, Origene), FUS (TP301808, Origene), CDK9/cyclin T1 (PV4131, ThermoFisher Scientific) and CDK7/cyclin H/MNAT1 (ab64303, Abcam). The in vitro kinase assay was performed using the Adapta kinase assay (PV5099, ThermoFisher Scientific) according to manufacturer's instructions. The template used for kinase activity was either 50 μM CDK7/9tide provided in the kit (PV5090, ThermoFisher Scientific), or 12 ng RNAPII CTD fragment. 1 μM EWSR1 or FUS was added to the substrate and 10 μM ATP kinase buffer and pre-incubated for 15 min. 1.77 μg/ml CDK9/cyclin T1 or 5.6 μg/ml CDK7/cyclin H/MNAT1 were then added and the kinase reaction was allowed to proceed for a further 45 minutes. 10 μM ADP and 10 μM ATP served positive and negative controls. Finally, Eu-labeled antibody and Alexa Fluor-647-labeled tracer added and the level of ATP consumption was measured 30 minutes later using BMG Labtech Pherastar microplate reader. Each condition was tested in quadruplicate and the overall experiment was repeated at least 3 times for independent validation.

T1 sequence (P50750 whole entry, the tested form may be a part): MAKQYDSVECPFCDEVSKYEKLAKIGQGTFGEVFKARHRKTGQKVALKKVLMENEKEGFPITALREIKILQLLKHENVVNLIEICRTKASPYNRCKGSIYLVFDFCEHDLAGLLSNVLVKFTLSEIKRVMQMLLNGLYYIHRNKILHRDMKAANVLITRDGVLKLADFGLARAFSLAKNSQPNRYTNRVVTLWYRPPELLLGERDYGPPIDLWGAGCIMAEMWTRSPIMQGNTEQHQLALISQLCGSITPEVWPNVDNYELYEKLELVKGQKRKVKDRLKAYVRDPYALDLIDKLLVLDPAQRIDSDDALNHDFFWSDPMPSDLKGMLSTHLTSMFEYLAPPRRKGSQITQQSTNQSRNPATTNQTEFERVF
T1 sequence (O60563 whole entry partner, the tested form may be a part): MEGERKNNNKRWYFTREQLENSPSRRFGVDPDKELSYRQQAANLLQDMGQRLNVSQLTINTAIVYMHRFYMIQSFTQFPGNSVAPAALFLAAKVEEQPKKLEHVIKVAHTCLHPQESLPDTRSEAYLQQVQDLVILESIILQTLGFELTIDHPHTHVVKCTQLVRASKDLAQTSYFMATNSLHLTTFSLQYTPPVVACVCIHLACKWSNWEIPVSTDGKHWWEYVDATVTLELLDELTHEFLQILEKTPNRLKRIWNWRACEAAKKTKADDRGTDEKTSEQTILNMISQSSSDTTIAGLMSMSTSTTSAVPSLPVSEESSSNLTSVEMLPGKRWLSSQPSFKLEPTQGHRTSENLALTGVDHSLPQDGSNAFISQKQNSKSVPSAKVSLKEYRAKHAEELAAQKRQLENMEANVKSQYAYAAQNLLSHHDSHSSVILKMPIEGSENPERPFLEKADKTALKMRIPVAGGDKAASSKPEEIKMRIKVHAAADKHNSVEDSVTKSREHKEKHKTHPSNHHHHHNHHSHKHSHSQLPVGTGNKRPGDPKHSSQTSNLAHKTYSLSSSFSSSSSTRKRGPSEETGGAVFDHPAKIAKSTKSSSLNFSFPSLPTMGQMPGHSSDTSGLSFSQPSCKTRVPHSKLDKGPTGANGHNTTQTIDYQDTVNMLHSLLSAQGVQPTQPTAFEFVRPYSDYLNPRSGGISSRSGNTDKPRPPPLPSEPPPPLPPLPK

O=C(c1cc(Cc2n[nH]c(=O)c3ccccc23)ccc1F)N1CCN(C(=O)C2CC2)CC1 [Olaparib]
sensitivity (cell viability) of EwS cell lines compared to controls (EwS cell lines): exquisite sensitivity | sensitivity (cell viability) of EwS cell lines compared to controls (EwS cell lines; listed as olaparib): acutely sensitive | sensitivity (cell viability) of U2OS cells expressing EWS-FLI1 [1]: exquisite sensitivity

O=c1c2ccccc2sn1-c1ccccc1 [R11]
sensitivity (cell viability) of EwS cell lines compared to controls (EwS cell lines): significantly higher sensitivity

CC[C@@]1(O)C(=O)OCc2c1cc1n(c2=O)Cc2cc3ccccc3nc2-1 [camptothecin]
sensitivity (cell viability) of EwS cell lines compared to controls (EwS cell lines): much more sensitive | sensitivity (cell viability) of EWSR1-depleted U2OS cells [2]: much more sensitive

OC[C@H]1O[C@@H](n2cnc3cc(Cl)c(Cl)cc32)[C@H](O)[C@@H]1O [DRB, 5,6-dichloro-1-β-D-ribofuranosyl-1H-benzimidazole]
sensitivity (cell viability) of EwS cell lines compared to controls (EwS cell lines): much more sensitive | sensitivity (cell viability) of EWSR1-depleted U2OS cells [2]: much more sensitive

COc1cc([C@@H]2c3cc4c(cc3[C@@H](O[C@@H]3O[C@@H]5CO[C@@H](C)O[C@H]5[C@H](O)[C@H]3O)[C@H]3COC(=O)[C@H]23)OCO4)cc(OC)c1O [etoposide]
transcriptional activity (EU incorporation) after exposure (TC32 cells): much delayed loss of transcription | sensitivity (cell viability) of EwS cell lines compared to controls (EwS cell lines): acutely sensitive | transcriptional activity (EU incorporation) after exposure (IMR90 cells): decrease in EU incorporation two hours post-damage followed by recovery at 16 hours

CS(=O)(=O)c1ccc(-c2cnc(N)c(C(=O)Nc3ccccc3)n2)cc1 [VE-821]
sensitivity (cell viability) of EwS cell lines compared to controls (EwS cell lines): significantly more sensitive | sensitivity (cell viability) of U2OS cells expressing EWS-FLI1 [1]: significantly more sensitive | sensitivity (cell viability) of EWSR1-depleted U2OS cells [2]: significantly more sensitive

NC(=O)NO [hydroxyurea]
sensitivity (cell viability) of EwS cell lines compared to controls (EwS cell lines): acutely sensitive

B1: EWSR1: purified recombinant EWSR1 protein (TP303709, Origene) (protein, UniProt Q01844 1-656, looked up)
RNA-binding protein EWS: MASTDYSTYSQAAAQQGYSAYTAQPTQGYAQTTQAYGQQSYGTYGQPTDVSYTQAQTTATYGQTAYATSYGQPPTGYTTPTAPQAYSQPVQGYGTGAYDTTTATVTTTQASYAAQSAYGTQPAYPAYGQQPAATAPTRPQDGNKPTETSQPQSSTGGYNQPSLGYGQSNYSYPQVPGSYPMQPVTAPPSYPPTSYSSTQPTSYDQSSYSQQNTYGQPSSYGQQSSYGQQSSYGQQPPTSYPPQTGSYSQAPSQYSQQSSSYGQQSSFRQDHPSSMGVYGQESGGFSGPGENRSMSGPDNRGRGRGGFDRGGMSRGGRGGGRGGMGSAGERGGFNKPGGPMDEGPDLDLGPPVDPDEDSDNSAIYVQGLNDSVTLDDLADFFKQCGVVKMNKRTGQPMIHIYLDKETGKPKGDATVSYEDPPTAKAAVEWFDGKDFQGSKLKVSLARKKPPMNSMRGGLPPREGRGMPPPLRGGPGGPGGPGGPMGRMGGRGGDRGGFPPRGPRGSRGNPSGGGNVQHRAGDWQCPNPGCGNQNFAWRTECNQCKAPKPEGFLPPPFPPPGGDRGRGGPGGMRGGRGGLMDRGGPGGMFRGGRGGDRGGFRGGRGMDRGGFGGGRRGGPGGPPGPLMEQMGGRRGGRGGPGKMDKGEHRQERRDRPY
inhibition of phosphorylation of RNAPII CTD by CDK9 (CDK9/cyclin T1): inhibited

B2: FUS: purified recombinant FUS protein (TP301808, Origene) (protein, UniProt P35637 1-526, looked up)
RNA-binding protein FUS: MASNDYTQQATQSYGAYPTQPGQGYSQQSSQPYGQQSYSGYSQSTDTSGYGQSSYSSYGQSQNTGYGTQSTPQGYGSTGGYGSSQSSQSSYGQQSSYPGYGQQPAPSSTSGSYGSSSQSSSYGQPQSGSYSQQPSYGGQQQSYGQQQSYNPPQGYGQQNQYNSSSGGGGGGGGGGNYGQDQSSMSSGGGSGGGYGNQDQSGGGGSGGYGQQDRGGRGRGGSGGGGGGGGGGYNRSSGGYEPRGRGGGRGGRGGMGGSDRGGFNKFGGPRDQGSRHDSEQDNSDNNTIFVQGLGENVTIESVADYFKQIGIIKTNKKTGQPMINLYTDRETGKLKGEATVSFDDPPSAKAAIDWFDGKEFSGNPIKVSFATRRADFNRGGGNGRGGRGRGGPMGRGGYGGGGSGGGGRGGFPSGGGGGGGQQRAGDWKCPNPTCENMNFSWRNECNQCKAPKPDGPGGGPGGSHMGGNYGDDRRGGRGGYDRGGYRGRGGDRGGFRGGRGGGDRGGFGPGKMDSRGEHRQDRRERPY
inhibition of phosphorylation of RNAPII CTD by CDK9 (CDK9/cyclin T1): inhibited
